Data set [1] deals with rat osteoclasts. In words: bone resorption assay (disaggregated rat osteoclasts on human cortical bone slices). The conditions noted are these: osteoclasts counted on hormone-treated versus control bone slices.
Method: Following incubation (37° C.; 15 minutes), the bone slices were removed, washed gently in Minimal Essential Medium with FCS (10%, v/v) (MEM/FCS) and placed in separate wells (each well contained 5-6 slices and 900 μl MEM/FCS). Either one or two homogeneous suspensions of osteoclasts were used for each experiment. When two suspensions were used, the experiment was divided into two blocks, each of which included all treatments and one suspension. After further incubation (37° C., 10% humidified CO2, 10 minutes), 100 μl of MEM/FCS containing the test substance was added. Finally, bone slices were incubated overnight (37° C., 10% humidified CO2, 18 hours) and quantified in terms of cell numbers and bone resorption. After fixation in glutaraldehyde, cells were stained with toluidine blue and examined by transmitted light microscopy. In order to rule out toxic effects, osteoclasts were counted on three slices for every variable and their numbers were then compared on hormone-treated and control bone slices. […] Osteoclastic excavations, each defined by a continuous border within an area of unresorbed bone were counted. The area of bone surface resorbed was calculated by tracing the outline of the concavities into an image processor (Sight Systems, Newbury, Berks).
Data set [2] has as its system rat osteoclasts. To be noted: Zaidi et al. 1988; cited from earlier work.
Data set [3] concerns rabbit. To be noted: cited from earlier work.
For data set [4], the system named is chick. To be noted: higher doses; cited from earlier work.
The subject of data set [5] is isolated osteoclasts. In words: functional responses of isolated osteoclasts (motility, cytosolic calcium, retraction). It counts as cell-based. An excerpt:
Thus, it appears that osteoclast activity may be restrained via two receptor types; calcitonin acts at both while amylin acts mainly via only one, reducing motility, reducing resorption and probably acting via the second messenger cAMP (Zaidi et. al. 1990, J. Endocrinol 126, 473-481.

Read-outs that look alike come from different tables or passages of the source.

The values that follow come from US5405831A, “Treatment of bone disorders” (Amylin Pharmaceuticals, Inc., priority 1989, dated 1995).

With `CC[C@H](C)[C@H](NC(=O)[C@H](C)NC(=O)CNC(=O)[C@H](Cc1ccccc1)NC(=O)[C@H](CC(N)=O)NC(=O)[C@H](CC(N)=O)NC(=O)[C@H](CO)NC(=O)[C@H](CO)NC(=O)[C@H](Cc1c[nH]cn1)NC(=O)[C@@H](NC(=O)[C@H](CC(C)C)NC(=O)[C@H](Cc1ccccc1)NC(=O)[C@H](CC(N)=O)NC(=O)[C@H](C)NC(=O)[C@H](CC(C)C)NC(=O)[C@H](CCCNC(=N)N)NC(=O)[C@H](CCC(N)=O)NC(=O)[C@@H](NC(=O)[C@H](C)NC(=O)[C@@H]1CSSC[C@H](NC(=O)[C@@H](N)CCCCN)C(=O)N[C@@H](CC(N)=O)C(=O)N[C@@H]([C@@H](C)O)C(=O)N[C@@H](C)C(=O)N[C@@H]([C@@H](C)O)C(=O)N1)[C@@H](C)O)C(C)C)C(=O)N[C@@H](CC(C)C)C(=O)N[C@@H](CO)C(=O)N[C@@H](CO)C(=O)N[C@H](C(=O)N[C@@H](CC(N)=O)C(=O)N[C@H](C(=O)NCC(=O)N[C@@H](CO)C(=O)N[C@@H](CC(N)=O)C(=O)N[C@H](C(=O)N[C@@H](Cc1ccc(O)cc1)C(N)=O)[C@@H](C)O)C(C)C)[C@@H](C)O` [amylin], the “osteoclast cell number or viability” value in data set [1] is on record as “without affecting cell number of viability”.
CGRP: in data set [2], the osteoclastic bone resorption entry was “inhibits osteoclastic bone resorption”. Besides, the “effect on plasma calcium” value in data set [3] (rabbit, higher doses) is recorded as “parathyroid hormone-like hypercalcemic effect”; in data set [3] (rabbits, lower doses), “hypocalcaemic”; in data set [4], “parathyroid hormone-like hypercalcemic effect”.
calcitonin: in data set [5], the cell retraction result was “caused cell retraction”, the cytosolic calcium result is recorded as “elevated cytosolic calcium” and the osteoclast motility entry was “inhibited osteoclast motility”.
